Laboratory results from patent US9212173B2, “Pyrazole aminopyrimidine derivatives as LRRK2 modulators” (Genentech, Inc., priority 2012, dated 2015).

Biological target: LRRK2 (Homo sapiens (Human), UniProt Q5S007, G2019S)
Assay: In Vitro LRRK2 Assay (LRRK2 Ki)
Assay type: biochemical
Procedure: In Vitro LRRK2 Lanthascreen Binding Assay
This assay was used to determine a compound's potency in inhibiting activity of LRRK2 by determining, Kiapp, IC50, or percent inhibition values.
Binding of the Alexa Fluor® “tracer” to a kinase is detected by addition of a Eu-labeled anti-GST antibody.
12 pt curve. […] Stamp 5 ul to assay plate. Final top test concentration 100 uM
In Reaction Buffer, 5 ul of DMSO (3%) was added to total and blank wells and 5 ul of Eu-labeled anti-GST antibody (6 nM) was added to blank wells. Add 5 ul LRRK2 (30 nM)/Eu-labeled anti-GST antibody (6 nM) mix to compound and total wells.
Incubate plates at room temperature for 1 hour on a plate shaker (gentle shaking). Read on Perkin Elmer EnVision reader HTRF protocol
Subtract mean background values from all data points. Calculate % of control for each test value. Plot % of control vs Compound concentration. Calculate Ki Value (xlfit curve fitting-Morrison equation). Results expressed as a Ki in μM. Equation for Ki: Y=V0*(1−((x+Ki*(1+S/Km)+Et)/(2*Et)−(((x+Ki*(1+S/Km)+Et)^2−(4*Et*x))^0.5)/(2*Et)))
This assay was used to determine a compound's potency in inhibiting activity of LRRK2 by determining, Kiapp, IC50, or percent inhibition values. In a polypropylene plate, LRRK2, fluorescently-labeled peptide substrate, ATP and test compound were incubated together. Using a LabChip 3000 (Caliper Life Sciences), after the reaction the substrate was separated by capillary electrophoresis into two populations: phosphorylated and unphosphorylated. The relative amounts of each were quantitated by fluorescence intensity. LRRK2 Ki was determined according to the equation: Y=V0*(1−((x+Ki*(1+S/Km)+Et)/(2*Et)−(((x+Ki*(1+S/Km)+Et)^2−(4*Et*x))^0.5)/(2*Et))).
Ki values in Table 4 and elsewhere herein are shown in μM.
For serial dilutions, 34.6 μl DMSO was added to columns 3-24.
In Complete Reaction Buffer, substrate was diluted to 4 μM. Equal volumes of Complete Reaction Buffer and 4 μM substrate were combined to obtain the blank. Equal volumes of Complete Reaction Buffer and 4 μM substrate were combined and to the combined solution was added 2× final LRRK2 concentration.
To a 50 μl polypropylene plate, 5 μl/well buffer/substrate was added by hand to Blank wells. A Biomek FX was used to start the kinase reaction (“PLK SAR 23 ATP”). The following were added to the appropriate wells:
The plate was incubated for 2 hours in the dark. Biomek FX was used to stop the kinase reaction (“PLK Stop”), and 10 μl/well Stop solution was added to the Assay Plate. Results were read on the LabChip 3000.
The LabChip 3000 was run using the job “LRRK2 IC50” with the following job settings: […]

Sequence of LRRK2 (Q5S007 whole entry G2019S): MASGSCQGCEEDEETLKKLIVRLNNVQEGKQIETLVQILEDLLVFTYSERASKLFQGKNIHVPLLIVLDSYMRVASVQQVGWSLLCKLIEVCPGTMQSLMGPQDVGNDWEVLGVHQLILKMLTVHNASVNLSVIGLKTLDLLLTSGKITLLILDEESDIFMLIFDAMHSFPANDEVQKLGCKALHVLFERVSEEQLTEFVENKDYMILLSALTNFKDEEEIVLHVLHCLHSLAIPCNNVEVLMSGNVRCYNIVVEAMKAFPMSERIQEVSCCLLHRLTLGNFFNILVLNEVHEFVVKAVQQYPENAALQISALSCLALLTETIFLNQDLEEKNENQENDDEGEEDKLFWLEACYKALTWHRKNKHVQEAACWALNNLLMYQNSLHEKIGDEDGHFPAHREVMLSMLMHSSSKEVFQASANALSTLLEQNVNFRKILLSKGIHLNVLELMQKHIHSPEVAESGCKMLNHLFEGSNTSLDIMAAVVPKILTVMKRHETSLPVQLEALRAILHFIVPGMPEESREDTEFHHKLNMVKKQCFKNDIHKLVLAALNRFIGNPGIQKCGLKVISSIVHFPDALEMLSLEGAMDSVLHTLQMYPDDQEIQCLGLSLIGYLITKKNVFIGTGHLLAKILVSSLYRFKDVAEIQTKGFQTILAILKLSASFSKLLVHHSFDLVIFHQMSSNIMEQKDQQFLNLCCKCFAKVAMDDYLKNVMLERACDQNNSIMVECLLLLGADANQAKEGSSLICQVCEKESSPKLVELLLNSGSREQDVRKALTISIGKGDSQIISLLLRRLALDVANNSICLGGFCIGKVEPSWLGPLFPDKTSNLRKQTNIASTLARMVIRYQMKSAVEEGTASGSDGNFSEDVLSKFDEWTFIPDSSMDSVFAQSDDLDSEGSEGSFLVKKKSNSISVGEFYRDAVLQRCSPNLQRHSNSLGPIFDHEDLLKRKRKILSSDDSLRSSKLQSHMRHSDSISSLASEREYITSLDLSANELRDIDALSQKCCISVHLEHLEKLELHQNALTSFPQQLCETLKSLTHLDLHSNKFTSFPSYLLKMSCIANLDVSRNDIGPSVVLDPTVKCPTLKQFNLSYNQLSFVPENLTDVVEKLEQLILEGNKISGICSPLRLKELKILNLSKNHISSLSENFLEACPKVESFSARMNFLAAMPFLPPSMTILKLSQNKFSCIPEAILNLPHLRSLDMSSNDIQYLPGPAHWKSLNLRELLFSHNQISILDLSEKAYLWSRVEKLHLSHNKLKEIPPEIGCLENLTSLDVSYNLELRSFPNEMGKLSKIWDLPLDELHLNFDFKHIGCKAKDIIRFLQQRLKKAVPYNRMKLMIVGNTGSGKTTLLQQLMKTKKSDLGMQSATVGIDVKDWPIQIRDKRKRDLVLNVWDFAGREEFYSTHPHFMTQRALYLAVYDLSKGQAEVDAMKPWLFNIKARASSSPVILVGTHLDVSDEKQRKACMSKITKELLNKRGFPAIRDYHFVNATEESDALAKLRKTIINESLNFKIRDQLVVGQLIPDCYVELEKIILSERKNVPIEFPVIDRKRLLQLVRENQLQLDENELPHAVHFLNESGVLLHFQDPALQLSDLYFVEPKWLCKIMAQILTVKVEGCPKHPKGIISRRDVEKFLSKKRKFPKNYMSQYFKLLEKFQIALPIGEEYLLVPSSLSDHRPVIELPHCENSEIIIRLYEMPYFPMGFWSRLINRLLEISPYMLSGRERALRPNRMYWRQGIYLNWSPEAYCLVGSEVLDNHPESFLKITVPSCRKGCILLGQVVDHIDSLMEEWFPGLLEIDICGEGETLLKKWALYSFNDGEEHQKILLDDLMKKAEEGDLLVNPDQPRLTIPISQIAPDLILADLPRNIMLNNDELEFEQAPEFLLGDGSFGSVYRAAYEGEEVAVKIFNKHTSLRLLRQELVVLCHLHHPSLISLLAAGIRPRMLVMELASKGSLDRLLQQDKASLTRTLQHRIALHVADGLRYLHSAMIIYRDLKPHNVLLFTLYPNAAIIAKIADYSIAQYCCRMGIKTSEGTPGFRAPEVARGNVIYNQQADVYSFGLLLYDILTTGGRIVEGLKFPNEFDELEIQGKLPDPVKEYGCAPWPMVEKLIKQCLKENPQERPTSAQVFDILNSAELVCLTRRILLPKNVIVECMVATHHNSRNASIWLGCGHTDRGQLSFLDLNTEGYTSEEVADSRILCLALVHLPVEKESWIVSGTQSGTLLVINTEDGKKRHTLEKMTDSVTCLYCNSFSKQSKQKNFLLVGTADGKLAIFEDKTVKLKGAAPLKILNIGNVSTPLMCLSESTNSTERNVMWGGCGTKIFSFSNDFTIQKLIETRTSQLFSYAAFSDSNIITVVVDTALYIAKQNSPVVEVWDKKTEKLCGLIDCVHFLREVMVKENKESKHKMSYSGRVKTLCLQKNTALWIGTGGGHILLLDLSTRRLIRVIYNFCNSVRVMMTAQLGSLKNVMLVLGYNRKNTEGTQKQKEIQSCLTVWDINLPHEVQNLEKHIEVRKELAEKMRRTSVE

Ki [nM] | SMILES
0.6 | CNc1nc(Nc2cn(C3CCOC[C@H]3F)nc2C)ncc1C(F)(F)F (stereo in doubt) [Example 37, N2-(1-(3-fluorotetrahydro-2H-pyran-4-yl)-3-methyl-1H-pyrazol-4-yl)-N4-methyl-5-(trifluoromethyl)pyrimidine-2,4-diamine]
2.8 | CNc1nc(Nc2cnn(C3CCOC[C@H]3F)c2C)ncc1C(F)(F)F (stereo in doubt) [Example 39, N2-(1-(3-fluorotetrahydro-2H-pyran-4-yl)-5-methyl-1H-pyrazol-4-yl)-N4-methyl-5-(trifluoromethyl)pyrimidine-2,4-diamine]
7.3 | Cc1c(Nc2ncc(C#N)c(NC3CC3)n2)cnn1C1CCOCC1 [Example 3, 4-(cyclopropylamino)-2-((5-methyl-1-(tetrahydro-2H-pyran-4-yl)-1H-pyrazol-4-yl)amino)pyrimidine-5-carbonitrile]
6.2 | CCNc1nc(Nc2cnn(C3CCOCC3)c2Cl)ncc1C#N [Example 7, 2-((5-chloro-1-(tetrahydro-2H-pyran-4-yl)-1H-pyrazol-4-yl)amino)-4-(ethylamino)pyrimidine-5-carbonitrile]
4.8 | CNc1nc(Nc2cn(C(C)(C)CO)nc2C)ncc1C(F)(F)F [Example 9, 2-methyl-2-(3-methyl-4-((4-(methylamino)-5-(trifluoromethyl)pyrimidin-2-yl)amino)-1H-pyrazol-1-yl)propan-1-ol]
5 | CNc1nc(Nc2cnn(CC3(O)CC3)c2Cl)ncc1C(F)(F)F [Example 10, 1-((5-chloro-4-((4-(methylamino)-5-(trifluoromethyl)pyrimidin-2-yl)amino)-1H-pyrazol-1-yl)methyl)cyclopropanol]
4.8 | CNc1nc(Nc2cn(C3(C)COC3)nc2C)ncc1C(F)(F)F [Example 15, N4-methyl-N2-(3-methyl-1-(3-methyloxetan-3-yl)-1H-pyrazol-4-yl)-5-(trifluoromethyl)pyrimidine-2,4-diamine]
140 | CNc1nc(Nc2cn(C(C)(C)c3nc(C)cn3C)nc2C)ncc1C(F)(F)F [Example 16, N2-(1-(2-(1,4-dimethyl-1H-imidazol-2-yl)propan-2-yl)-3-methyl-1H-pyrazol-4-yl)-N4-methyl-5-(trifluoromethyl)pyrimidine-2,4-diamine]
3.82 | CNc1nc(Nc2cn(C(C)(C)c3ncc(C)o3)nc2C)ncc1C(F)(F)F [Example 18, N4-methyl-N2-(3-methyl-1-(2-(5-methyloxazol-2-yl)propan-2-yl)-1H-pyrazol-4-yl)-5-(trifluoromethyl)pyrimidine-2,4-diamine]
0.975 | CCNc1nc(Nc2cn(C3(C)COC3)nc2C)ncc1C(F)(F)F [Example 19, N4-ethyl-N2-(3-methyl-1-(3-methyloxetan-3-yl)-1H-pyrazol-4-yl)-5-(trifluoromethyl)pyrimidine-2,4-diamine]
0.96 | CCNc1nc(Nc2cn(S(=O)(=O)CCOC)nc2C)ncc1C(F)(F)F [Example 20, N4-ethyl-N2-(1-((2-methoxyethyl)sulfonyl)-3-methyl-1H-pyrazol-4-yl)-5-(trifluoromethyl)pyrimidine-2,4-diamine]
1.85 | CNc1nc(Nc2cn(S(=O)(=O)CCOC)nc2C)ncc1C(F)(F)F [Example 21, N2-(1-((2-methoxyethyl)sulfonyl)-3-methyl-1H-pyrazol-4-yl)-N4-methyl-5-(trifluoromethyl)pyrimidine-2,4-diamine]
6.46 | CNc1nc(Nc2cnn(S(=O)(=O)CCOC)c2C)ncc1C(F)(F)F [Example 22, N2-(1-((2-methoxyethyl)sulfonyl)-5-methyl-1H-pyrazol-4-yl)-N4-methyl-5-(trifluoromethyl)pyrimidine-2,4-diamine]
1.1 | CCNc1nc(Nc2cnn(C(C)(C)c3nncn3C)c2Cl)ncc1C(F)(F)F [Example 23, N2-(5-chloro-1-(2-(4-methyl-4H-1,2,4-triazol-3-yl)propan-2-yl)-1H-pyrazol-4-yl)-N4-ethyl-5-(trifluoromethyl)pyrimidine-2,4-diamine]
16.6 | CNc1nc(Nc2cnn(CC(C)c3ccn(C)n3)c2C)ncc1C(F)(F)F (stereo not shown) [Example 24, N4-methyl-N2-(5-methyl-1-(2-(1-methyl-1H-pyrazol-3-yl)propyl)-1H-pyrazol-4-yl)-5-(trifluoromethyl)pyrimidine-2,4-diamine]
108 | CNc1nc(Nc2cnn(CC(C)c3ccn(C)n3)c2C)ncc1C(F)(F)F (stereo not shown) [Example 25, N4-methyl-N2-(5-methyl-1-(2-(1-methyl-1H-pyrazol-3-yl)propyl)-1H-pyrazol-4-yl)-5-(trifluoromethyl)pyrimidine-2,4-diamine]
4.3 | CNc1nc(Nc2cn(C(C)(C)c3ncccn3)nc2C)ncc1C(F)(F)F [Example 26, N4-methyl-N2-(3-methyl-1-(2-(pyrimidin-2-yl)propan-2-yl)-1H-pyrazol-4-yl)-5-(trifluoromethyl)pyrimidine-2,4-diamine]
3.7 | CCNc1nc(Nc2cn(C(C)(C)c3nnc(C)o3)nc2Cl)ncc1C(F)(F)F [Example 27, N2-(3-chloro-1-(2-(5-methyl-1,3,4-oxadiazol-2-yl)propan-2-yl)-1H-pyrazol-4-yl)-N4-ethyl-5-(trifluoromethyl)pyrimidine-2,4-diamine]
6.5 | CCNc1nc(Nc2cn(C(C)(C)c3nnc(CC)o3)nc2C)ncc1C(F)(F)F [Example 29, N4-ethyl-N2-(1-(2-(5-ethyl-1,3,4-oxadiazol-2-yl)propan-2-yl)-3-methyl-1H-pyrazol-4-yl)-5-(trifluoromethyl)pyrimidine-2,4-diamine]
0.6 | CCNc1nc(Nc2cn(C(C)(C)c3ncn(C(C)C)n3)nc2C)ncc1C(F)(F)F [Example 30, N4-ethyl-N2-(1-(2-(1-isopropyl-1H-1,2,4-triazol-3-yl)propan-2-yl)-3-methyl-1H-pyrazol-4-yl)-5-(trifluoromethyl)pyrimidine-2,4-diamine]
42.5 | CCNc1nc(Nc2cn(C(C)(C)c3nncn3C)nc2Cl)ncc1C(F)(F)F [Example 31, N2-(3-chloro-1-(2-(4-methyl-4H-1,2,4-triazol-3-yl)propan-2-yl)-1H-pyrazol-4-yl)-N4-ethyl-5-(trifluoromethyl)pyrimidine-2,4-diamine]
0.5 | CCNc1nc(Nc2cn(C(C)(C)c3ncn(C)n3)nc2Cl)ncc1C(F)(F)F [Example 32, N2-(3-chloro-1-(2-(1-methyl-1H-1,2,4-triazol-3-yl)propan-2-yl)-1H-pyrazol-4-yl)-N4-ethyl-5-(trifluoromethyl)pyrimidine-2,4-diamine]
2 | CNc1nc(Nc2cnn(CCc3ccn(C)n3)c2C)ncc1C(F)(F)F [Example 33, N4-methyl-N2-(5-methyl-1-(2-(1-methyl-1H-pyrazol-3-yl)ethyl)-1H-pyrazol-4-yl)-5-(trifluoromethyl)pyrimidine-2,4-diamine]
3.7 | CNc1nc(Nc2cn(CCc3ccn(C)n3)nc2C)ncc1C(F)(F)F [Example 36, N4-methyl-N2-(3-methyl-1-(2-(1-methyl-1H-pyrazol-3-yl)ethyl)-1H-pyrazol-4-yl)-5-(trifluoromethyl)pyrimidine-2,4-diamine]
0.6 | CNc1nc(Nc2cnn(C3CCOC[C@@H]3F)c2C)ncc1C(F)(F)F (stereo partly drawn) [Example 40, N2-(1-((3R)-3-fluorotetrahydro-2H-pyran-4-yl)-5-methyl-1H-pyrazol-4-yl)-N4-methyl-5-(trifluoromethyl)pyrimidine-2,4-diamine]
12.8 | CNc1nc(Nc2cn(C(C)(C)CC#N)nc2C)ncc1C(F)(F)F [Example 41, 3-methyl-3-(3-methyl-4-((4-(methylamino)-5-(trifluoromethyl)pyrimidin-2-yl)amino)-1H-pyrazol-1-yl)butanenitrile]
4.1 | CCC(C#N)Cn1cc(Nc2ncc(C(F)(F)F)c(NC)n2)c(C)n1 (stereo not shown) [Example 42, 2-((3-methyl-4-((4-(methylamino)-5-(trifluoromethyl)pyrimidin-2-yl)amino)-1H-pyrazol-1-yl)methyl)butanenitrile]

SMILES | Ki [nM]
CCNc1nc(Nc2cc(C(C)(C)C#N)nn2C)ncc1C(F)(F)F [Example 44, 2-(5-((4-(ethylamino)-5-(trifluoromethyl)pyrimidin-2-yl)amino)-1-methyl-1H-pyrazol-3-yl)-2-methylpropanenitrile] | 0.7
